Source: patent US9486465B2, “Attractant for bone marrow stem cells and method for attracting bone marrow stem cells” (PIAS CORPORATION, priority 2012, dated 2016)

System: wound with full-thickness skin loss in genetically diabetic db/db mice
Test: Cell attraction test in vivo of mice: skin regeneration test (wound healing test)
Set-up: species or system mouse
Details: 120 μg/mL or 40 μg/mL PBS solution, 20 μL per site dropwise onto wound surface, three times per week for four weeks, FIG. 4
Excerpt: Cell Attraction Test In Vivo of Mice
In order to evaluate the performance of the attractant for bone marrow stem cells to attract bone marrow stem cells in vivo of mice, living mice were subjected to experiments as follows. When a living mouse is wounded, bone marrow stem cells can accumulate around the wound portion through the bloodstream. Then, the bone marrow stem cells that have accumulated around the wound portion secrete cytokine, or the bone marrow stem cells that have accumulated around the wound portion differentiate into cells of the wound portion, thereby allowing the wound to be healed. Accordingly, it is expected that application of the attractant for bone marrow stem cells to the wound portion causes the bone marrow stem cells to be attracted to the wound portion, thereby accelerating the healing of the wound.
Method of Skin Regeneration Test (Wound Healing Test) […]
A picture of the back was captured three times per week, for four weeks, and the image was loaded into a PC. Thus, the wound area was measured using an image analysis software (product name: Image J). Thereafter, the wound area was measured once a week until about 60 days from the wound creation.

Oc1cc(O)c2c(c1)O[C@@]1(c3ccc(O)c(O)c3)Oc3cc(O)c4c(c3[C@@H]2[C@H]1O)O[C@H](c1ccc(O)c(O)c1)[C@H](O)[C@H]4c1c(O)cc(O)c2c1O[C@H](c1ccc(O)c(O)c1)[C@H](O)C2 [cinnamtannin B1]
wound area measurement (healing of the wound): healing of the wound was accelerated
